Measurements: US20080171716A1, “NUCLEIC ACID MODULATION OF TOLL-LIKE RECEPTOR-MEDIATED IMMUNE STIMULATION” (Protiva Biotherapeutics, Inc., priority 2006, published 2008)
m = 2'-O-methyl; r = 2'-OH (RNA)

Columns and labels:
TLR7/8 = test: Cytokine induction in human PBMCs by immunostimulatory RNA, alone or co-formulated with modified ssRNA in the same SNALP/lipid particle; type: cell-based; details: for IFN-α production induced by the RNA alone: lipid-formulated RNA alone, doses 0.1 to 3 μg/ml; for immunostimulatory effects (IFN-α induction) of ApoB antisense ssRNA when co-formulated / IFN-α induction by NP ssRNA when co-formulated: 1:1 molar ratio; for IFN-α levels induced by β-gal antisense ssRNA when co-encapsulated / IL-6 levels induced by β-gal antisense ssRNA when co-encapsulated: equimolar amounts in the same SNALP; for cytokine production from human PBMCs when co-formulated with immunostimulatory RNA: co-formulated with immunostimulatory ssRNA; for IFN-α induction by NP ssRNA when co-formulated: 0.5 μg/ml NP ssRNA
Protocol: (§1) All RNA molecules used in this study were heated at 90° C. for 3 min. and then placed at 37° C. for 60 min. Non-denaturing PAGE analysis on a 20% polyacrylamide gel was performed to confirm that ssRNA molecules were intact and that no duplexes had formed upon heating. The RNA molecules were encapsulated in a SNALP formulation comprising PEG-cDMA:DLinDMA:cholesterol:DSPC in a 2:40:48:10 mol % ratio (2:40 SNALP), prepared using a syringe press process.
(§2) Fresh human peripheral blood mononuclear cells (PBMCs) were isolated and seeded at about 3×10^5 cells/well in a total volume of 180 μl. Next, 20 μl of the appropriate SNALP diluted in PBS or 10 μl of naked TLR agonist were added to the PBMCs. For time course experiments, PBMCs were pretreated with UmodS ssRNA or a control and the appropriate naked TLR agonist was added at 0, 0.5, or 2 hours after pretreatment. When the SNALP and naked TLR agonist were added separately, the SNALP was added first followed by the naked TLR agonist. At t=24 hr., the cell supernatant was harvested and IFN-α and/or IL-6 levels were determined using ELISA.
The ssRNA molecules used in this study were heated at 90° C. for 3 min. and then placed at 37° C. for 60 min to disrupt any potential secondary structure. Non-denaturing PAGE analysis on a 20% polyacrylamide gel was performed to confirm that ssRNA molecules were intact and that no duplexes had formed upon heating. siRNA duplexes were prepared by annealing equimolar concentrations of two deprotected and desalted ssRNA oligonucleotides using standard procedures. Formation of annealed siRNA duplexes was confirmed by non-denaturing PAGE analysis on a 20% polyacrylamide gel. The RNA molecules were encapsulated in a 2:40 SNALP formulation prepared using a syringe press process.
Fresh human peripheral blood mononuclear cells (PBMCs) were isolated and seeded at about 3×10^5 cells/well in a total volume of 180 μl. Next, 20 μl of the appropriate SNALP diluted in PBS were added to the PBMCs. At t=24 hr., the cell supernatant was harvested and IFN-α and/or IL-6 levels were determined using an enzyme-linked immunosorbent assay (ELISA). For example, IFN-α and IL-6 levels can be measured using a sandwich ELISA kit available from PBL Biomedical (Piscataway, N.J.) and eBioscience (San Diego, Calif.), respectively.
(§3) Lipid Encapsulation of RNA and ODN. RNA or ODN were encapsulated in liposomes by a process of spontaneous vesicle formation as described in Judge et al., supra, and Jeffs et al., Pharm. Res., 22:362-372 (2005).
(§4) Cell Isolation and Culture. Human PBMCs were isolated from whole blood of healthy donors by a standard Ficoll-Hypaque density centrifugation. Blood was diluted 1:1 with PBS, layered onto Ficoll-Paque Plus, and centrifuged at 1600 RPM for 30 min. PBMCs were washed in PBS twice followed by resuspension in complete media (RPMI 1640, 10% heat inactivated FBS, 2 mM L-glutamine, and 1% penicillin/streptomycin). PBMCs were plated at 2.5×10^5 cells/well in 96 well plates for cytokine induction assays.
(§5) Loxoribine (InvivoGen; San Diego, Calif.), polyIC (Sigma-Aldrich; St. Louis, Mo.), and formulated nucleic acids were diluted in PBS and added to either human PBMC or Flt3L DC cultures. Cells were incubated 24 h at 37° C. before supernatants were assayed for cytokines by ELISA.
(§6) Cytokine ELISA. All cytokines were quantified using sandwich ELISA kits according to the manufacturer's instructions. These were mouse and human IFN-α (PBL Biomedical; Piscataway, N.J.) and IL-6 (eBioscience; San Diego, Calif.).

TLR7 = target: T1, TLR7 (Homo sapiens, UniProt Q9NYK1); test: Loxoribine (TLR7 agonist)-induced IFN-α/IL-6 production in human PBMCs; type: cell-based; details: SNALP-encapsulated ssRNA added before naked agonist, supernatant at 24 hr, ELISA
T1 construct: Human PBMCs were isolated from whole blood of healthy donors; endogenous in cells; host or cells: primary human PBMCs from healthy donors
T1 sequence (Q9NYK1 27-1049): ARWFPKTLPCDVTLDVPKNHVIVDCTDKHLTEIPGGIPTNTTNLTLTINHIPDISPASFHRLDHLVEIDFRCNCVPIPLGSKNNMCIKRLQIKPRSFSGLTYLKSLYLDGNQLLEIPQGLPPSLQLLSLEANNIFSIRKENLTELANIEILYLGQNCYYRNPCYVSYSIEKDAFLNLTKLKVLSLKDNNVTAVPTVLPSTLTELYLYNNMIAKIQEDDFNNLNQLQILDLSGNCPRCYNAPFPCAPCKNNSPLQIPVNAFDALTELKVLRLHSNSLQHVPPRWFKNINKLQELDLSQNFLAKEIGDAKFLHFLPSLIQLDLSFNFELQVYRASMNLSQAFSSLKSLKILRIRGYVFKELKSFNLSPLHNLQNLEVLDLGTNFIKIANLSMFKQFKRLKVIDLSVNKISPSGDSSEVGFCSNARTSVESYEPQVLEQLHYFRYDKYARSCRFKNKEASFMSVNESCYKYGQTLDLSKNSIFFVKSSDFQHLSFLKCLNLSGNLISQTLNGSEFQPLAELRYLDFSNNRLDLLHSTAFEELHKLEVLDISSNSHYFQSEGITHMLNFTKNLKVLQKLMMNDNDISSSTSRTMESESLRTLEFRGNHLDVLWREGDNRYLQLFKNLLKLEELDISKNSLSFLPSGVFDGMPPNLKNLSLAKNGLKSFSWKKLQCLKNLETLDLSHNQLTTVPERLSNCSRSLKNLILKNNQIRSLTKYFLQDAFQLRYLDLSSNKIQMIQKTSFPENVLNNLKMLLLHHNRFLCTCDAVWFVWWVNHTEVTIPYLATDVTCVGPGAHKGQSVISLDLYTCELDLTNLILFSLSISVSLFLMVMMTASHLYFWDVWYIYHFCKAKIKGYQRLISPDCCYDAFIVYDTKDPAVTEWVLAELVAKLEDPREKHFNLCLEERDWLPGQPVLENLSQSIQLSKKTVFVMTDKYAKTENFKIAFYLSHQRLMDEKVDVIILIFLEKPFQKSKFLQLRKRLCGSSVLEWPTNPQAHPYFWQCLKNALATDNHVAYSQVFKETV
Protocol: as §1, §2, §3, §4, §5, §6

[1] = human PBMCs, co-formulated in the same SNALP, 24 h

Substance: ApoB antisense ssRNA: immunostimulatory antisense ssRNA: AUUGGUAUUCAGUGUGAUGACAC (chemistry not given here) [reference compound]
- IFN-α production induced by the RNA alone (TLR7/8; human PBMC cultures): induced high levels of IFN-α
- IFN-α production induced by ApoB antisense ssRNA in absence of modified ssRNA (TLR7/8; human PBMCs, SNALP, 24 hr): 5000 to 6000 pg/mL

Substance: Luc: unmodified Luc sense strand ssRNA: 5′GAUUAUGUCCGGUUAUGUAUU 3′ (sense GAUUAUGUCCGGUUAUGUAUU; RNA, backbone not given here) [reference compound]
- immunostimulatory effects (IFN-α induction) of ApoB antisense ssRNA when co-formulated (TLR7/8; [1]): high levels of IFN-α were still induced

Substance: NP1496 UmodS: influenza NP1496 sense strand ssRNA with 2′OMe uridines: GGAmUCmUmUAmUmUmUCmUmUCGGAGUU (sense GGAUCUUAUUUCUUCGGAGUU; sugars from the 5' end rrrmrmmrmmmrmmrrrrrrr, backbone not given here)
- IFN-α production induced by the RNA alone (TLR7/8; […]): do not induce measurable IFN-α production
- immunostimulatory effects of ApoB antisense ssRNA at molar excess of agonist (TLR7/8; human PBMCs, co-formulated in the same SNALP at 1:1, 1:2, or 1:4 molar ratio (up to 4-fold molar excess of agonist)): antagonized
- immunostimulatory effects (IFN-α induction) of ApoB antisense ssRNA when co-formulated (TLR7/8; [1]): abolished
- immunostimulatory effects (IFN-α induction) of ApoB antisense ssRNA when co-formulated (TLR7/8; human PBMCs, co-formulated in the same SNALP, 24 h, listed as NP-mU): abrogated
- immunostimulatory effects (IFN-α induction) of ApoB siRNA duplex when co-formulated (TLR7/8; human PBMCs, co-formulated in the same SNALP, equimolar, 24 h): abrogated
- IFN-α levels induced by β-gal antisense ssRNA when co-encapsulated (TLR7/8; human PBMCs, 24 h): abrogated

Substance: NP1496: unmodified NP1496 sense strand ssRNA: GGAUCUUAUUUCUUCGGAGUU (RNA, backbone not given here) [reference compound]
- immunostimulatory effects (IFN-α induction) of ApoB antisense ssRNA when co-formulated (TLR7/8; [1]): high levels of IFN-α were still induced

Substance: NP-mC: 2′OMe-cytidine RNA: GGAUmCUUAUUUmCUUmCGGAGUU (GGAUCUUAUUUCUUCGGAGUU; 2'-O-methyl at C, RNA at AGU, backbone not given here)
- immunostimulatory effects (IFN-α induction) of ApoB antisense ssRNA when co-formulated (TLR7/8; [1]): do not inhibit

Substance: polyUmod10: 2′OMe-uridine homopolymer of 10 nucleotides in length (UUUUUUUUUU; all 2'-O-methyl, backbone not given here)
- cytokine production from human PBMCs when co-formulated with immunostimulatory RNA (TLR7/8; human PBMCs): significantly reduced cytokine induction, although inhibition with these shorter oligonucleotides was not absolute
- IFN-α levels induced by β-gal antisense ssRNA when co-encapsulated (TLR7/8; human PBMCs, 24 h): significantly reduced
- IL-6 levels induced by β-gal antisense ssRNA when co-encapsulated (TLR7/8; human PBMCs, 24 h): significantly reduced
- IFN-α levels induced by β-gal antisense ssRNA when co-encapsulated (TLR7/8; human PBMCs, 24 h, listed as (mU)10): inhibit

Substance: polyUmod15: 2′OMe-uridine homopolymer of 15 nucleotides in length (UUUUUUUUUUUUUUU; all 2'-O-methyl, backbone not given here)
- IL-6 levels induced by naked loxoribine (TLR7): inhibited only IFN-α levels
- level of IFN-α induced by naked loxoribine (TLR7): inhibited
- cytokine production from human PBMCs when co-formulated with immunostimulatory RNA (TLR7/8; human PBMCs): equally as effective at inhibiting cytokine production
- IFN-α levels induced by β-gal antisense ssRNA when co-encapsulated (TLR7/8; human PBMCs, 24 h): significantly reduced
- IL-6 levels induced by β-gal antisense ssRNA when co-encapsulated (TLR7/8; human PBMCs, 24 h): significantly reduced
- IFN-α levels induced by β-gal antisense ssRNA when co-encapsulated (TLR7/8; human PBMCs, 24 h, listed as (mU)15): inhibit

Substance: β-gal [reference compound]
- immunostimulatory effects (IFN-α induction) of ApoB antisense ssRNA when co-formulated (TLR7/8; [1]): high levels of IFN-α were still induced

Substance: βgal-mA: 2′OMe-adenosine modified RNA: CUmACmACmAmAmAUCmAGCGmAUUUU (CUACACAAAUCAGCGAUUUU; 2'-O-methyl at A, RNA at CGU, backbone not given here)
- IFN-α induction by NP ssRNA when co-formulated (TLR7/8; human PBMCs, 24 h): inhibits

Substance: βgal-mC: 2′OMe-cytidine RNA: mCUAmCAmCAAAUmCAGmCGAUUUUU (CUACACAAAUCAGCGAUUUUU; 2'-O-methyl at C, RNA at AGU, backbone not given here)
- IFN-α induction by NP ssRNA when co-formulated (TLR7/8; human PBMCs, 24 h): not
- immunostimulatory effects (IFN-α induction) of ApoB antisense ssRNA when co-formulated (TLR7/8; [1]): do not inhibit

Substance: βgal-mG: 2′OMe-guanosine modified RNA: CUACACAAAUCAmGCmGAUUUUU (CUACACAAAUCAGCGAUUUUU; sugars from the 5' end r12 m1 r1 m1 r6, backbone not given here)
- IFN-α induction by NP ssRNA when co-formulated (TLR7/8; human PBMCs, 24 h): inhibits
